Results as given in patent publication US7589168B2 (Roskamp Research LLC, priority 2001, dated 2009).
Entries after “also recorded” stand apart in the source; their conditions may differ. Ends that are not written are not given here.

Legend:
rat aortic rings = assay: Ex vivo rat aortic ring angiogenesis assay; type: cell-based, Sprague Dawley rats
[1] = test system: cow middle cerebral artery rings; assay: Cow middle cerebral artery ring angiogenesis assay; type: cell-based; settings: COX-2 inhibition by NS-398; data not shown
[2] = test system: human middle cerebral artery rings; assay: Human middle cerebral artery ring angiogenesis assay; type: cell-based; settings: for microvessel outgrowths: day 9, vs control
B16F1 melanoma cells = assay: Growth of subcutaneous B16F1 melanoma tumors; type: in vivo, C57B16/J mice; settings: cells injected s.c. in medium containing 10 μM freshly dissolved Aβ1-40; 14 days after implantation
Procedure: Subcutaneous Implantation of B16 Melanoma Cells. C57B16/J mice were purchased from Jackson laboratories at 8 weeks of age. The B16 F1 murine melanoma cell line was purchased from ATCC. Cells were grown in DMEM medium supplemented with 10% fetal calf serum and 1× mixture of antibiotics-fungicide (BIOWHITEKER). […] 100 μl of cell suspension were injected subcutaneously in mice. Fourteen days after the implantation of the cells, mice were euthanized and the tumors dissected and weighted.

[3] = test system: bFGF-induced angiogenesis in MATRIGEL plugs; assay: In vivo […] plug assay (bFGF-induced angiogenesis); parameters: species or system mice
[4] = test system: A-549 (human lung adenocarcinoma); assay: Nude mouse tumor xenograft model, A-549; type: in vivo, nude mice; settings: for tumor growth (tumor volume): vs vehicle control; for tumor vascularization (mean microvessel count per tumor): vs control tumors, 50 mg/kg/day
Procedure: (§1) Nude mouse tumor xenograft model. […] The tumor volumes were determined by measuring length (l) and width (w) and calculating volume (V=lw^2/2). On the termination day of each in vivo antitumor study, tumors were extracted and fixed in 10% neutral buffered formalin for 6 h. Formalin-fixed paraffin sections were cut at 3 microns and dried overnight at room temperature. Sections were immunostained with rat anti-mouse CD31 ([sequence], San Diego, Calif.) using the avidin peroxidase complex technique as previously described (Blaskovich M. A., et al. Nat. Biotechnol. 18, 1065-1070 (2000)). Briefly, sections were digested with protease XXIV (1 mg/ml in PBS, pH 7.6) for 7 minutes. Endogenous peroxidase was blocked with 3% hydrogen peroxide and non-specific background staining reduced by a 10 min incubation with normal rabbit serum. Sections were incubated for 30 min with rat anti-mouse CD31 at 1:50, for 15 min with biotinylated anti-rat IgG and for 15 min with ABC complex (VECTOR KIT, Burlingame, Calif). NOVARED was used as the chromogen. Slides were counterstained with modified Mayer's hematoxylin using standard histological techniques. For microvessel counting, the five areas of highest tumor neovascularization were microscopically selected using a low-power view. After the areas of highest neovascularization had been identified, individual microvessels were counted on a 400×(40× objective lens and 10× ocular lens) field. Brown-staining endothelial cells or endothelial cell clusters were considered as a single, countable microvessel as previously described (Weidner N. et al. N. Engl. J. Med. 324, 1-8 (1991)). Data from at least forty 400× fields of each tumor type are reported by mean values±SE. Results are expressed as the % of microvessel count standardized against the microvessel count in the control tumors (vehicle only).

[5] = test system: U87-MG (human glioblastoma); assay: Nude mouse tumor xenograft model, U87-MG; type: in vivo, nude mice
Procedure: as §1

endothelial cells = assay: Toxicity (apoptosis, necrosis) of Aβ in the capillary network assay; type: cell-based, human; settings: soluble or aggregated Aβ; data not shown
Procedure: Although endothelial cells continue to proliferate and form a cobblestone monolayer when plated on untreated tissue culture dishes, culturing on dishes coated with reconstituted basement membrane induces endothelial cells to become quiescent and adopt a three-dimensional capillary-like morphology. Therefore, the effect of Aβ on the capillary-like network formation on […] by endothelial cells isolated from human middle cerebral artery was assessed. […] The potential toxicity of Aβ was investigated in this assay and it was observed that under these culture conditions no apoptosis (as measured by ELISA determining the quantity of cytoplasmic oligonucleosomes) or necrosis (estimated by the release of LDH in the culture medium) of endothelial cells was induced by either soluble or aggregated Aβ (data not shown).

[6] = test system: human brain endothelial cells; assay: Endothelial cell migration assay (modified Boyden chamber, […] invasion chamber); type: cell-based; settings: 20 hours, vs untreated cells
Procedure: Endothelial Cell Migration Assay. Migration of human brain adult endothelial cells was evaluated using a modified Boyden chamber assay (BD BioCoat [sequence] Invasion Chamber), as described (Soker et al. 1998; Nakamura et al. 1997). The cells were plated at 4.10^4/ml onto an 8 μm pore size membrane coated with a thin layer of [sequence] basement membrane matrix. Freshly solubilized Aβ (1 μM and 5 μM) was added to the medium in the outer cup and the cells were cultured for 20 hours. Non-invading cells were removed from the upper surface by using a cotton swab. Membrane inserts were then fixed with 4% paraformaldehyde and stained with the DEAD-RED dye (MOLECULAR PROBE). Cells were observed using a fluorescent microscope. The number of cells, which migrated to the undersurface of the filter, was quantified by counting the cells in randomly selected 3 microscopic fields (10×). Experiments were done in triplicate.

[7] = test system: neovascularization stimulated by bFGF in the rat cornea; assay: Rat corneal model of angiogenesis (bFGF hydron pellets); type: in vivo
Excerpt: Representative flat-mount photomicrographs of rat corneas (original magnification ×100) 7 days after implantation of hydron pellets. […] Angiogenesis indexes are expressed as mean±SE.

[8] = test system: chick chorionic allantoid membrane (CAM); assay: Chick chorionic allantoid membrane (CAM) model of angiogenesis; type: in vivo; settings: dose range 1 microgram to 250 micrograms, 48 hours
Procedure: After 48 hours of incubation, CAMs were perfused with colloidal carbon, fixed and photographed.

[9] = 50 mg/kg/day/tumor intratumorally

CS(=O)(=O)Nc1ccc([N+](=O)[O-])cc1OC1CCCCC1 [NS-398]
microvessel outgrowths (rat aortic rings; 20 μM, day 5, vs control): displays anti-angiogenic activity; also recorded: effectively inhibited outgrowths | effect on stimulation of microvessel outgrowths by 1 μM Aβ1-40 (rat aortic rings; NS-398 + 1 μM Aβ1-40, day 5): able to oppose the pro-angiogenic effect of 1 μM Aβ1-40; also recorded: also inhibited | microvessel outgrowths [1]: partial inhibition of microvessel outgrowths | microvessel outgrowths ([2]; NS-398 (20 μM)): partially inhibited the microvessel outgrowths; also recorded: anti-angiogenic effect

Aβ: Aβ peptide as worded in the examples; methods and legends indicate Aβ1-40 (toxicity test: soluble or aggregated Aβ1-40 and Aβ1-42)
development of tumors (tumor weight) (B16F1 melanoma cells): significantly reduce the development of tumors | total cellular invasion in MATRIGEL plugs ([3]; 50 mg/kg/day, Aβ vs scrambled Aβ group, t-test): significant difference | angiogenesis in the MATRIGEL plug model ([3]; with 2 μM of Aβ peptide): inhibition of angiogenesis | tumor growth (tumor volume) [4, 9]: suppression of tumor growth | reduction of tumor microvessel densities ([4]; CD31 and factor VIII immunostaining, 50 mg/kg/day/tumor intratumorally): approximately 60% | tumor growth ([4]; with 10 μM of Aβ peptide): complete inhibition of tumor growth | tumor growth (tumor volume) ([5]; 50 mg/kg/day/tumor intratumorally, vs vehicle control): suppression of tumor growth | reduction of microvessel densities ([5]; CD31 immunostaining, 50 mg/kg/day/tumor intratumorally): approximately 50% | tumor growth ([5]; with 10 μM of Aβ peptide): complete inhibition of tumor growth | apoptosis of endothelial cells (ELISA, cytoplasmic oligonucleosomes) (endothelial cells): no apoptosis | necrosis of endothelial cells (release of LDH in the culture medium) (endothelial cells): no | endothelial cell migration ([6]; 1 μM freshly solubilized): stimulated endothelial cell migration | endothelial cell migration ([6]; 5 μM freshly solubilized): significantly suppressed endothelial cells migration

VIGKYHGMSNLVGRSFEVHQGKGAEVDAHGLFDIEAFVDV [scrambled Aβ, having the same amino acids as Aβ1-40 peptide, but in random order]
endothelial cell invasion and vessel formation (PECAM-1 immunostaining) ([3]; 50 mg/kg/day intraperitoneal, 6 days): presence of endothelial cells forming vessels | tumor growth (tumor volume) [4, 9]: did not affect the growth of human lung tumors; also recorded: no difference | tumor vascularization (mean microvessel count per tumor) [4, 9]: no significant difference | tumor vascularization (mean microvessel count per tumor) ([4]; 50 mg/kg/day/tumor intratumorally, listed as Aβ scrambled): did not impede tumor vascularization | neovascularization stimulated by bFGF ([7]; after 7 days, hydron pellets): displayed no effect | angiogenesis index vs control (bFGF alone) ([7]; dose not stated, 7 days): no significant difference | vascular response vs control conditions [8]: no difference in vascular response | microvessel outgrowths ([2]; 1 μM, listed as scramble Aβ1-40): absence of pro-angiogenic activity; also recorded: not altered | microvessel outgrowths ([2]; 5 μM): not altered | formation of outgrowths ([2]; scramble peptide, dose not given, 9 days): unable to affect the formation of outgrowths
